Data as given in patent US20240166627A1, “Terpyridinedione compound or salt thereof, and preparation method and application thereof” (SHENZHEN SALUBRIS PHARMACEUTICALS CO., LTD., priority 2021, published 2024).

Test system: production of TNFα in U937
Assay: Releasing TNFα from U937 induced by LPS
Assay type: cell-based
Details: Homo sapiens, U-937; PMA-differentiated U937, LPS 100 ng/ml, 4 h; read-out: IC50 value that the compound inhibits the production of TNFα
Outline: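 U937 cells differentiated with PMA (20 ng/ml, 48 h) were pretreated with compound (0.1% DMSO final) for 30 min at 37 °C, then stimulated with LPS (100 ng/ml) for 4 h. Supernatant TNFα was quantified by ELISA against a kit standard curve, and IC50 came from nonlinear fitting.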

`Cc1cnc(-n2cccc(C(C)(C)O)c2=O)cc1-n1c(C)cc(OCc2ncc(F)cc2F)c(Cl)c1=O` [Comparative example 1] showed an IC50 of 1.63 nM.
